Data from article PMC2932999 (Journal of Medicinal Chemistry, 2010).

What was measured:
[1] = molecular target: D197 Gifu NA (B/Gifu/11/2005 wild type neuraminidase) (Influenza B virus, UniProt Q38G88); assay type: biochemical; details: read-out: Km for MUNANA
[2] = molecular target: D197 Perth NA (B/Perth/211/2001 wild type neuraminidase) (Influenza B virus, UniProt Q3S340); assay type: biochemical; details: read-out: Km for MUNANA
[3] = in vivo; cited from earlier work
[4] = test system: wild type D197 NAs (B/Perth and B/Gifu); assay type: biochemical, influenza B virus
[5] = molecular target: recombinant B/Perth/211/2001 wild type D197 neuraminidase heads (influenza B virus B/Perth/211/2001); assay: negative-stain electron microscopy

| Compound | association of inhibitor with NA [4] | dissociation of inhibitor from NA [4] | also measured |
| --- | --- | --- | --- |
| CC(=O)N[C@H]1[C@H]([C@H](O)[C@H](O)CO)OC(Oc2ccc3c(C)cc(=O)oc3c2)(C(=O)O)C[C@@H]1O (some centres unmarked) [MUNANA, 4-methylumbelliferyl-N-acetylneuraminic acid] |  |  | Km [1]: 10.5 ± 1.4 µM; Km [2]: 12.4 ± 4.2 µM |
| CC(=O)N[C@H]1[C@H]([C@H](O)[C@H](O)CO)OC(C(=O)O)=C[C@@H]1NC(=N)N [compound 1, zanamivir] | slow association | slow dissociation | levels delivered to the upper respiratory tract [3]: up to 10 000 nmol/L |
| CCC(CC)[C@H](NC(C)=O)[C@@H]1[C@H](O)[C@@H](C(=O)O)C[C@H]1NC(=N)N [compound 3, peramivir] | slow association | slow dissociation |  |
| recombinant B/Perth/211/2001 wild type D197 neuraminidase heads (enzyme) |  |  | stoichiometry N [5]: 4 |
